Data: patent US7238689B2, “Isoxazoline derivative and herbicide comprising the same as active ingredient” (Ihara Chemical Industry Co., Ltd., priority 2001, dated 2007)

Columns and labels:
[1] = system: Echinochloa crus-galli (L.) Beauv. var. crus-galli; experiment: Herbicidal effect by upland foliage treatment; type: in vivo; set-up: scale not given here; settings: active ingredient 1000 g/ha, examined at 14th day from treatment
Procedure: (§1) A sand was filled in a plastic pot of 80 cm^2. Seeds of Echinochloa crus-galli (L.) Beauv. var. crus-galli and Setaria viridis (L.) Beauv. were sowed. Breeding was made in a greenhouse for 2 weeks. Wettable powders produced in accordance with the Formulation 1 were diluted with water and sprayed on the whole foliage of plants from above the plants using a small sprayer in an amount of 1,000 liters per 1 hectare so that the amount of each active ingredient became 1,000 g per 1 hectare. Then, breeding was made in the greenhouse, and the herbicidal effect of each wettable powder was examined at the 14th day from the treatment in accordance with the standard shown in Table 21.

[2] = system: Setaria viridis (L.) Beauv.; experiment: Herbicidal effect by upland foliage treatment; type: in vivo; set-up: scale not given here; settings: active ingredient 1000 g/ha, examined at 14th day from treatment
Procedure: as §1

[3] = system: Echinochloa crus-galli (L.) Beauv. var. crusgalli; experiment: Herbicidal effect by upland field soil treatment; type: in vivo; set-up: scale not given here; settings: active ingredient 1000 g/ha, examined at 21st day from treatment
Text: (§2) An upland field soil was filled in a plastic pot of 80 cm^2. Seeds of Echinochloa crus-galli (L.) Beauv. var. crusgalli and Setaria viridis (L.) Beauv. were sowed, followed by covering with the same soil. […] Then, breeding was made in a greenhouse, and the herbicidal effect of each wettable powder was examined at the 21st day from the treatment in accordance with the standard shown in Table 21.

[4] = system: Setaria viridis (L.) Beauv.; experiment: Herbicidal effect by upland field soil treatment; type: in vivo; set-up: scale not given here; settings: active ingredient 1000 g/ha, examined at 21st day from treatment
Text: as §2

[5] = system: Monochoria vaginalis (Murm. f.) Presl var. plantaginea (Roxb.) Solms-Laub.; experiment: Herbicidal effect by paddy field soil treatment; type: in vivo; set-up: scale not given here; settings: wettable powder, active ingredient 1000 g/ha, examined at the 21st day from the treatment
In short: (§3)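 Seeds sown in puddled paddy soil under 3 cm of water; the next day wettable powders diluted in water were dropped onto the water surface at 1,000 g active ingredient/ha. Plants grown in a greenhouse, with herbicidal effect scored on day 21 against a rating standard.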

[6] = system: Echinochloa oryzicola Vasing; experiment: Herbicidal effect by paddy field soil treatment; type: in vivo; set-up: scale not given here; settings: wettable powder, active ingredient 1000 g/ha, examined at the 21st day from the treatment
In short: as §3

SMILES | herbicidal effect (index per standard of Table 21), Echinochloa curs-galli (L.) Beauv. Var. crus-galli [1] | herbicidal effect (index per standard of Table 21), Setaria viridis (L.) Beauv. [2] | herbicidal effect (index per standard of Table 21), Echinochloa curs-galli (L.) Beauv. Var. crus-galli [3] | herbicidal effect (index per standard of Table 21), Setaria viridis (L.) Beauv. [4] | melting point | Herbicidal effect index, Monochoria vaginalis (Burm. F.) Presl var. plantaginea (Roxb.) Solms-Laub. [5] | Herbicidal effect index, Echinochloa oryzicola Vasing [6]
CON=C(C)c1c(C)sc(C)c1CS(=O)(=O)C1=NOC(C)(C)C1 [2-0001, 5,5-dimethyl-3-[2,5-dimethyl-4-(1-methoxyiminoethyl)-thiophen-3-ylmethylsulfonyl]-2-isoxazoline] | 5 | 4 | 5 | 5 | 95 to 96 °C | 5 | 5
CC1(C)CC(SCc2c(C(F)(F)F)nn(-c3ccccc3)c2Cl)=NO1 [3-0001, 3-(5-chloro-1-phenyl-3-trifluoromethyl-1H-pyrazol-4-ylmethylthio)-5,5-dimethyl-2-isoxazoline] |  |  |  |  | 89 to 90 °C |  | 
CC1(C)CC(S(=O)(=O)Cc2c(C(F)(F)F)nn(-c3ccccc3)c2Cl)=NO1 [3-0002, 3-(5-chloro-1-phenyl-3-trifluoromethyl-1H-pyrazol-4-ylmethylsulfonyl)-5,5-dimethyl-2-isoxazoline] |  |  | 5 | 5 | 132 to 133 °C | 5 | 5
CCS(=O)(=O)c1c(CS(=O)(=O)C2=NOC(C)(C)C2)c(C(F)(F)F)nn1-c1ccccc1 [3-0004, 5,5-dimethyl-3-(5-ethylsulfonyl-1-phenyl-3-trifluoromethyl-1H-pyrazol-4-ylmethylsulfonyl)-2-isoxazoline] |  |  | 5 | 5 | 158 to 160 °C | 5 | 5
CN(C)c1c(CS(=O)(=O)C2=NOC(C)(C)C2)c(C(F)(F)F)nn1-c1ccccc1 [3-0005, 5,5-dimethyl-3-(5-dimethylamino-1-phenyl-3-trifluoromethyl-1H-pyrazol-4-ylmethylsulfonyl)-2-isoxazoline] |  |  |  |  | 150 to 151 °C |  | 
CC1(C)CC(SCc2c(C(F)(F)F)nn(C(C)(C)C)c2Cl)=NO1 [3-0006, 3-(1-tert-butyl-5-chloro-3-trifluoromethyl-1H-pyrazol-4-ylmethylthio)-5,5-dimethyl-2-isoxazoline] |  |  | 4 | 4 | 79 to 81 °C |  | 
CC1(C)CC(SCc2c(C(F)(F)F)n[nH]c2Cl)=NO1 [3-0007, 3-(5-chloro-3-trifluoromethyl-1H-pyrazol-4-ylmethylthio)-5,5-dimethyl-2-isoxazoline] |  |  |  |  | 120 to 122 °C |  | 
CC1(C)CC(SCc2c(C(F)(F)F)nn(C(F)F)c2Cl)=NO1 [3-0008, 3-(5-chloro-1-difluoromethyl-3-trifluoromethyl-1H-pyrazol-4-ylmethylthio)-5,5-dimethyl-2-isoxazoline] | 4 | 4 | 5 | 5 | 41 to 42 °C |  | 
CC1(C)CC(SCc2c(Cl)nn(C(F)F)c2C(F)(F)F)=NO1 [3-0009, 3-(3-chloro-1-difluoromethyl-5-trifluoromethyl-1H-pyrazol-4-ylmethylthio)-5,5-dimethyl-2-isoxazoline] |  |  | 5 | 5 | 89 to 90 °C | 5 | 5
CC1(C)CC(S(=O)(=O)Cc2c(C(F)(F)F)nn(C(F)F)c2Cl)=NO1 [3-0010, 3-(5-chloro-1-difluoromethyl-3-trifluoromethyl-1H-pyrazol-4-ylmethylsulfonyl)-5,5-dimethyl-2-isoxazoline] | 5 | 4 |  |  | 126 to 127 °C |  | 
CC1(C)CC(S(=O)(=O)Cc2c(Cl)nn(C(F)F)c2C(F)(F)F)=NO1 [3-0011, 3-(3-chloro-1-difluoromethyl-5-trifluoromethyl-1H-pyrazol-4-ylmethylsulfonyl)-5,5-dimethyl-2-isoxazoline] | 5 | 4 |  |  | 136 to 137 °C |  | 
CCOc1nn(C)c(C(F)(F)F)c1CS(=O)(=O)C1=NOC(C)(C)C1 [3-0012, 5,5-dimethyl-3-(3-ethoxy-1-methyl-5-trifluoromethyl-1H-pyrazol-4-ylmethylsulfonyl)-2-isoxazoline] |  |  | 5 | 5 | 124 to 125 °C |  | 
Cn1nc(C(F)(F)F)c(CS(=O)(=O)C2=NOC(C)(C)C2)c1Oc1ccccc1Cl [3-0014, 3-(5-(2-chlorophenoxy)-1-methyl-3-trifluoromethyl-1H-pyrazol-4-ylmethylsulfonyl)-5,5-dimethyl-2-isoxazoline] |  |  |  |  | 67 to 70 °C | 5 | 5
Cn1nc(C(F)(F)F)c(CS(=O)(=O)C2=NOC(C)(C)C2)c1C#N [3-0016, 3-(5-cyano-1-methyl-3-trifluoromethyl-1H-pyrazol-4-ylmethylsulfonyl)-5,5-dimethyl-2-isoxazoline] |  |  | 5 | 5 | 105 to 108 °C | 5 | 5
CCn1nc(Cl)c(CS(=O)(=O)C2=NOC(C)(C)C2)c1Cl [3-0017, 3-(3,5-dichloro-1-ethyl-1H-pyrazol-4-ylmethylsulfonyl)-5,5-dimethyl-2-isoxazoline] |  |  | 5 | 5 | 105 to 107 °C |  | 
Cn1nc(C(F)F)c(CS(=O)(=O)C2=NOC(C)(C)C2)c1Cl [3-0018, 3-(5-chloro-3-difluoromethyl-1-methyl-1H-pyrazol-4-ylmethylsulfonyl)-5,5-dimethyl-2-isoxazoline] |  |  | 5 | 5 | 78 to 79 °C |  | 
CC1(C)CC(S(=O)(=O)Cc2c(C(F)(F)F)nn3c2OCCC3)=NO1 [3-0019, 3-(5,5-dimethyl-2-isoxazolin-3-ylsulfonylmethyl)-2-trifluoromethyl-6,7-dihydro-5H-pyrazolo[5,1-b][1,3]oxazine] |  |  | 5 | 5 | 151 to 152 °C |  | 
CC1(C)CC(S(=O)(=O)Cc2cnccc2C(F)(F)F)=NO1 [7-0001, 5,5-dimethyl-3-(4-trifluoromethyl-pyridin-3-ylmethylsulfonyl)-2-isoxazoline] |  |  |  |  | 77 to 80 °C |  | 
CC1(C)CC(S(=O)(=O)Cc2ccccn2)=NO1 [9-0001] | 4 | 4 | 5 | 5 |  | 5 | 5
CC1(C)CC(S(=O)(=O)Cc2ncon2)=NO1 [9-0005] | 4 | 4 | 5 | 4 |  | 5 | 5
CC1(C)CC(S(=O)(=O)Cc2csc(Cl)n2)=NO1 [9-0008] | 4 | 4 | 5 | 5 |  | 5 | 5
